Where a name gives a salt, the structure may show the parent alone. Read-outs that look alike come from different tables or passages of the source.
Tests used:
[1] = cited from earlier work; for time to peak plasma concentration: after oral dosing
Dysthymia [2] = assay: Example 10: case, dysthymia with general anxiety disorder; details: earlier treatment with 40 mg
[3] = test system: dopamine neuronal reuptake; details: cited from earlier work
[4] = test system: muscarinic, histaminergic, or a-l adrenergic receptors; details: in vitro; cited from earlier work
[5] = test system: norepinephrine neuronal reuptake; details: cited from earlier work
[6] = cited from earlier work
[7] = test system: neuronal serotonin reuptake; details: cited from earlier work
monoamine oxidase = details: cited from earlier work
[8] = test system: dopaminergic, adrenergic, cholinergic, or histaminergic receptors; details: in vitro; cited from earlier work
human plasma proteins = details: cited from earlier work
Dysthymia [9] = assay: Example 12: method for treating Dysthymia (a person); assay type: in vivo, human; details: 10 years prior; 60 mg fluvoxamine, 40 mg paroxetine
[10] = human, in vivo; cited from earlier work
[11] = co-administered with venlafaxine
[12] = 30 mg oral dose, over a 10 day period

## CN(C)CCCC1(c2ccc(F)cc2)OCc2cc(C#N)ccc21 (racemic) [citalopram, (±)-1-[3-(dimethylamino)propyl]-1-(4-fluorophenyl)-1,3-dihydro-5-isobenzofuran carbonitrile, hydrobromide]
[1]
  time to peak plasma concentration: four
  increase of half life in elderly patients: 23-50%
[1]; daily dosing
  time to steady state plasma concentrations: a week
[1]; plasma
  elimination half-life: about 35 hours

## CNCCC(Oc1ccc(C(F)(F)F)cc1)c1ccccc1.Cl (racemic) [fluoxetine, (±)-N-methyl-3-phenyl-[(α,α,α-trifluoro-p-tolyl)oxyl]propylamine hydrochloride]
[1]; following acute administration
  half life: 24 to 72 h
Dysthymia [2]
  effect on depressive symptoms: decreased depressive symptoms
Dysthymia [2]; subsequently discontinued
  adverse effect: “dulled” the patient cognitively

## COc1ccc(C(CN(C)C)C2(O)CCCCC2)cc1.Cl (racemic) [venlafaxine, (R/S)-1-[2-(dimethylamino)-1-(4-methoxyphenyl)ethyl] cyclohexanol hydrochloride]
[3]
  effect on dopamine reuptake (in words): weak inhibitors
[4]
  affinity: not significant affinity
[1]; oral administration
  oral absorption (in words): well absorbed
[1]; plasma
  elimination half-life: 3 to 7 h
[1]; single dose
  fraction renally excreted within 48 hours: 87%
[5]
  effect on norepinephrine reuptake (in words): potent inhibitors
[6]; venlafaxine 150 mg/day with a single 600 mg oral dose of lithium, 12 healthy males
  steady-state pharmacokinetics: unaffected

## NC(=O)N1c2ccccc2CC(O)c2ccccc21 (centres unmarked) [MHD]
[1]; human, in vivo
  elimination half-life: about 9 hours

## CN(C)CC(c1ccc(O)cc1)C1(O)CCCCC1 (centres unmarked) [ODV, O-desmethylvenlafaxine]
[3]
  effect on dopamine reuptake (in words): weak inhibitors
[4]
  affinity: not significant affinity
[1]; human, in vivo
  elimination half-life: 9 to 13 h
[5]
  effect on norepinephrine reuptake (in words): potent inhibitors
[7]
  inhibition of serotonin reuptake (in words): potent inhibitors

## Clc1ccc2c(c1)C(N1CCNCC1)=Nc1ccccc1O2 [amoxapine, 2-Chloro-11-(1-piperazinyl)dibenz-[b,f][1,4]oxazepine]
[1]
  time to peak plasma concentration: approximately 90 minutes
[1]; oral administration
  oral absorption (in words): absorbed rapidly

## CN(C)CCCN1c2ccccc2Sc2ccc(Cl)cc21 [chlorpromazine, 10-(3-dimethylaminopropyl)-2-chlorphenothiazine]
[1]; oral administration
  oral absorption (in words): readily absorbed
[1]; plasma
  elimination half-life: approximately 30 hours

## O=c1ccc2ccc(OCCCCN3CCN(c4cccc(Cl)c4Cl)CC3)cc2[nH]1 [dehydro-aripiprazole]
[6]; lithium (1200-1800 mg/day) for 21 days with aripiprazole (30 mg/day)
  pharmacokinetics: did not result in clinically significant changes

## CNCC[C@H](Oc1cccc2ccccc12)c1cccs1.Cl [duloxetine, (+)-(S)-N-methyl-γ-(1-naphthyloxy)-2-thiophenepropylamine hydrochloride]
Monoamine oxidase
  inhibition of monoamine oxidase: does not inhibit
[8]
  affinity: no significant affinity

## CN(C)CCC[C@@]1(c2ccc(F)cc2)OCc2cc(C#N)ccc21 [escitalopram, S-(+)-1-[3-(dimethylamino)propyl]-1-(p-fluorophenyl)-5-phthalancarbonitrile oxalate]
[3]
  effect on dopamine reuptake (in words): minimal effects
[1]
  time to peak plasma concentration: about 5 hours
  increase of half life in elderly patients: approximately 50%
[1]; daily dosing
  time to steady state plasma concentrations: a week
[1]; plasma
  elimination half-life: 27 to 32 h
Human plasma proteins
  binding to human plasma proteins: approximately 56%
[5]
  effect on norepinephrine reuptake (in words): minimal effects

## COCCCC/C(=N\OCCN)c1ccc(C(F)(F)F)cc1 [fluvoxamine]
Dysthymia [9]
  outcome of prior antidepressant trials: unsuccessfully

## O=C(CCCN1CCC(O)(c2ccc(Cl)cc2)CC1)c1ccc(F)cc1 [haloperidol, 4-[4-(p-chlorophenyl)-4-hydroxypiperidino]-4′-fluorobutyrophenone]
[1]; after i.m. injection
  time to peak plasma level: about 20 minutes
[6]; [11]
  half life: unchanged
  increase of peak plasma concentration (Cmax): 88%
[6]; single 2 mg dose of haloperidol with venlafaxine 150 mg/day
  increase in the area under the plasma concentration curve: 70%

## CC[C@@H](C(N)=O)N1CCCC1=O [levetiracetam, (−)-(S)-α-ethyl-2-oxo-1-pyrrolidine acetamide]
[1]
  time to peak plasma concentration: about an hour
[1]; moderate renal impairment
  reduction of clearance: 50%
[1]; oral administration
  oral absorption (in words): rapidly and almost completely absorbed
[1]; plasma
  elimination half-life: approximately 7 hours
[1]; severe renal impairment
  reduction of clearance: 60%

## [Li] [lithium]
[1]; human, in vivo
  CSF lithium level at equilibration relative to the plasma concentration: approximately half
  fraction eliminated with the feces: less than 1%
  fraction of a single dose eliminated in urine: Approximately 95%
  fraction of a single dose excreted in 24 hours: About 50%
  fraction of the filtered lithium reabsorbed in the tubules: 80%
[1]; oral administration
  oral absorption (in words): rapidly absorbed
[1]; repeated dosing
  time to steady state plasma concentrations: five to six
[6]; co-administered with risperidone
  AUC and peak plasma concentrations of lithium: unaffected
[6]; multiple doses of olanzapine (10 mg for 8 days)
  kinetics of lithium: did not influence
[6]; valproate (500 mg BID) with lithium carbonate (300 mg TID), normal male volunteers
  steady state kinetics of lithium: not effect
[6]; with quetiapine (250 mg TID)
  steady-state pharmacokinetic parameters of lithium: no effect
[6]; with venlafaxine
  steady-state pharmacokinetics of lithium: unaffected
[6]; ziprasidone (40 mg BID) with lithium (450 mg BID for 7 days)
  steady state level and renal clearance of lithium: not affected

## CN1CCN(C2=Nc3ccccc3Oc3ccc(Cl)cc32)CC1 [loxapine succinate, 2-Chloro-11-(4-methyl-1-piperazinyl)dibenz[b,f][1,4]oxazepine]
[1]; oral administration
  oral absorption (in words): virtually complete
  time of excretion: mainly in the first 24 hours

## CNCCCC12CCC(c3ccccc31)c1ccccc12 [maprotiline, N-Methyl-9,10-ethanoanthracene-9(10H)-propanamine]
[1]; oral administration
  oral absorption (in words): completely absorbed

## NC(=O)C[S+]([O-])C(c1ccccc1)c1ccccc1 (centres unmarked) [modafinil, 2-[(diphenylmethyl)sulfinyl]acetamide]
[1]
  time to peak plasma concentration: 2 to 4 h
[1]; oral administration
  oral absorption (in words): rapid

## CCc1nn(CCCN2CCN(c3cccc(Cl)c3)CC2)c(=O)n1CCOc1ccccc1 [nefazodone, 2-[3-[4-(3-chlorophenyl)-1-piperazinyl]propyl]-5-ethyl-2,4-dihydro-4-(2-phenoxyethyl)-3H-,1,2,4-triazo-3-one monohydrochloride]
[1]; plasma
  elimination half-life: 2 to 4 h

## NC(=O)N1c2ccccc2CC(=O)c2ccccc21 [oxcarbazepine, 10,11-dihydro-10-oxo-5H-dibenzo[b,f]azepine-5-carboxamide]
[10]
  tolerability of dose: not be able to tolerate
[1]; plasma
  elimination half-life: about 2 hours

## Fc1ccc([C@@H]2CCNC[C@H]2COc2ccc3c(c2)OCO3)cc1 [paroxetine, (−)-trans-4R-(4′-fluorophenyl)-3S-[(3′,4′-methylenedioxyphenloxy)methyl]piperidine hydrochloride hemihydrate]
[3]
  effect on dopamine reuptake (in words): only very weak effects
[1]; [12]
  fraction of dose renally excreted: Approximately 64%
  fraction of dose renally excreted as metabolites: 62%
  fraction of dose renally excreted as the parent compound: 2%
[1]; 30 mg oral dose
  fraction of dose excreted in the feces: 36%
[1]; oral administration
  oral absorption (in words): completely absorbed
[1]; repeated dosing
  time to steady state plasma concentrations: approximately 10 days
Dysthymia [9]
  outcome of prior antidepressant trials: unsuccessfully
[5]
  effect on norepinephrine reuptake (in words): only very weak effects

## NNCCc1ccccc1 [phenelzine sulfate, (2-phenethyl)hydrazine]
Monoamine oxidase
  inhibition of monoamine oxidase: potent inhibitor
[1]
  time to peak plasma concentration: 0.717 h
[1]; plasma
  elimination half-life: 11.6 h

## CSc1ccc2c(c1)N(CCC1CCCCN1C)c1ccccc1S2 (centres unmarked) [thioridazine, 2-methylmercapto-10-[2-(N-methyl-2-piperidyl)ethyl]phenothiazine]
[1]; plasma
  elimination half-life: approximately 10 hours

## CC1(C)O[C@@H]2[C@@H](CO[C@@]3(COS(N)(=O)=O)OC(C)(C)O[C@@H]23)O1 [topiramate, 2,3:4,5-Di-O-isopropylidene-β-D-fructopyranose sulfamate]
[1]
  time to peak plasma concentration: approximately 2 hours
[1]; moderate renal impairment
  reduction of clearance: 42%
[1]; oral administration
  oral absorption (in words): rapid
[1]; repeated dosing
  time to steady state plasma concentrations: about 4 days
[1]; severe renal impairment
  reduction of clearance: 54%

## O=c1n(CCCN2CCN(c3cccc(Cl)c3)CC2)nc2ccccn12 [trazodone, 2-[3-[4-(3-chlorophenyl)-1-piperazinyl]propyl]-1,2,4-triazolo[4,3-a]pyridin-3(2H)-one]
[1]; taken with food
  time to peak plasma levels: two

## CCCC(CCC)C(=O)O [valproate, sodium hydrogen bis(2-propylpentanoate)]
[6]; olanzapine co-administered with valproate
  effect on each drug's metabolism: little effect

## NS(=O)(=O)Cc1noc2ccccc12 [zonisamide, 1,2-benzisoxazole-3-methanesulfonamide]
[1]
  time to peak plasma concentration: 2 to 6 h
[1]; plasma
  elimination half-life: about 63 hours
[1]; red blood cells
  elimination half-life in RBC: approximately 105 hours
[1]; repeated dosing
  time to steady state plasma concentrations: ≤ 14 days

— US20070212428A1, “METHODS AND COMPOSITIONS FOR TREATING MOOD DISORDER” (MOOD MANAGEMENT SCIENCES, INC., priority 2004, published 2007)
